# PubChem BioAssay (NCI)
#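 A five-concentration, 48-hour dose response in 96-well plates underlies each endpoint, interpolated linearly between surrounding concentrations. Here, GI50 denotes the concentration required for 50% inhibition of growth. TGI: total growth inhibition.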
# What was measured:
# Assay in all cases: NCI-60 cell line screen, 48 h
# BT-549 breast = test system: BT-549 breast
# COLO 205 colon = test system: COLO 205 colon
# HCC-2998 colon = test system: HCC-2998 colon
# K-562 leukemia = test system: K-562 leukemia
# MCF7 breast = test system: MCF7 breast
# MOLT-4 leukemia = test system: MOLT-4 leukemia
# NCI/ADR-RES ovarian = test system: NCI/ADR-RES ovarian
# T-47D breast = test system: T-47D breast
SMILES,GI50 (BT-549 breast) [µM],TGI (BT-549 breast) [µM],GI50 (COLO 205 colon) [µM],TGI (COLO 205 colon) [µM],GI50 (HCC-2998 colon) [µM],TGI (HCC-2998 colon) [µM],GI50 (K-562 leukemia) [µM],TGI (K-562 leukemia) [µM],GI50 (MCF7 breast) [µM],TGI (MCF7 breast) [µM],GI50 (MOLT-4 leukemia) [µM],TGI (MOLT-4 leukemia) [µM],GI50 (NCI/ADR-RES ovarian) [µM],TGI (NCI/ADR-RES ovarian) [µM],GI50 (T-47D breast) [µM],TGI (T-47D breast) [µM]
Cn1ccnc1C(=O)/C=C/c1ccc(CC(=O)Nc2cc(F)c(F)c(F)c2)cc1,1.15,4.47,2.53,7.08,2.55,6.04,0.808,> 25,1.36,6.82,0.84,12.1,1.09,> 25,1.29,8.14
O=C(Nc1ccc(I)cc1F)c1cc(F)ccc1O,0.301,1.05,3.88,15.6,3.1,26.4,0.407,> 42.1,1.48,> 25.3,0.611,2.59,0.401,> 27.7,0.313,3
CCc1cc(Nc2nccc(-c3c(-c4ccc(OC)c(C(=O)Nc5c(F)cccc5F)c4)nc4ccccn34)n2)c(OC)cc1N1CCC(N2CCN(S(C)(=O)=O)CC2)CC1,> 100,> 100,,> 100,> 100,> 100,> 100,> 100,,> 100,> 100,> 100,> 100,> 100,> 100,> 100
CC[C@@]1(O)C(=O)N(CCN(C)C)Cc2c1cc1n(c2=O)Cc2cc3ccccc3nc2-1,42.5,> 100,> 91.6,> 100,39.7,> 100,> 41.7,> 100,14.9,> 100,3.93,> 100,13.7,> 94.8,21,> 100
Cc1cncc2cccc(S(=O)(=O)N3CCCNC[C@@H]3C)c12,4.04,35.9,2.85,18.8,> 88.9,> 100,50,> 100,11.5,> 100,20.7,> 96.3,25.4,> 100,> 80.3,> 100
COc1ccc(C2C3=C(COC3=O)N(CCO)c3cc4c(cc32)CCC4)cc1OC (stereo not given),3.42,> 50,0.533,7.71,0.945,> 16.3,0.47,> 50,0.176,> 50,2.1,> 50,2.52,> 36.4,0.797,> 50
CCN(Cc1cccc(C)c1)c1ccc(CO)c(Cl)c1,13.4,27.2,2.53,6.92,12.1,25.4,3.98,44.6,0.366,11.1,18.5,> 64.3,11.3,24.5,0.294,1.81
CCN(CC)CCn1nc2c3c(cccc3c1=O)-c1ccccc1-2,6.16,15.1,1.86,10.2,2,11,2.03,> 50,0.715,3.51,1.44,8.46,2.19,45.1,2.06,27
C/C(=C\COc1ccc2ccc(=O)oc2c1)CCC(=O)C(C)(C)O,,74.9,,44.4,,38.4,,46.8,,40.6,,67.5,,> 100,,> 100
CN1CCN(Cc2ccc(NC(=O)c3cncc(C#Cc4cncc5[nH]ncc45)c3)cc2C(F)(F)F)CC1,1.39,5.58,0.192,3.56,0.777,5.88,0.005,1.64,1.09,6.77,0.773,4.44,4.09,11.3,1.8,9.4
O=C1c2ccccc2-c2c1c1ccccc1c(=O)n2CCCNCCO,1.65,5.9,0.63,3.75,1.28,5.74,0.284,7.95,0.102,5.03,0.0879,0.522,1.67,8.7,1.05,7.58
CC1CCCc2c(CC3CC(=O)NC(=O)C3)nc(N)nc21 (stereo not given),,> 100,,> 100,,> 100,,> 100,,> 100,,> 100,,> 100,,> 100
Cn1cc(C2=C(c3cccc(Cl)c3)C(=O)NC2=O)c2ccccc21,> 25,> 25,5.65,14.4,9.59,> 25,12.6,> 25,> 25,> 25,15.8,> 25,> 25,> 25,20,> 25
